Source: patent US20080268477A1, “Antibody Reactive Specifically to Age Derived from 3,4-Dge” (JMS CO., LTD., priority 2005, published 2008)

How the values were obtained:
BSA [1] = biological target: T1, BSA (Bos taurus, UniProt P02769); test: appearance (browning) of reaction solution of carbonyl compound and BSA; set-up: species or system bovine; conditions: 25 mM carbonyl compound, BSA 5 mg/ml, 37° C.; for browning of reaction solution: 168 hours
T1 construct: purchased SIGMA A-0281
Experimental: AGEs were formed from proteins, BSA, using carbonyl compounds (3,4-DGE, MGO, GO, 3-DG, and Glu). First, BSA (manufactured by SIGMA; Trade Name: A-0281) was dissolved in PBS (pH 7.4) so as to have a concentration of 5 mg/ml (6.2 mM of basic amino acid residues). Thus a BSA solution was prepared. Then each carbonyl compound was added to the BSA solution so as to have a concentration of 25 mM (4-equivalent relative to the basic amino acid residues in the BSA). This was incubated at 37° C. for predetermined times (2, 4, 8, 24, 72, and 168 hours). The respective carbonyl compounds used herein were 500 mM 3,4-DGE aqueous solution (prepared in house), 40% MGO aqueous solution (manufactured by SIGMA), 40% GO aqueous solution (manufactured by Wako Pure Chemical Industries, Ltd.), 3-DG (manufactured by Dojindo Laboratories Co., Ltd.), and Glu (Pharmacopeia, manufactured by San-ei Sucrochemical Co, Ltd.). The BSA solution was incubated in the same manner as described above, with no carbonyl compounds being added thereto. This was used as a control. The appearances of the reaction solutions obtained after 168 hours incubation are shown in the photograph in FIG. 9.

BSA [2] = biological target: T1, BSA; test: fluorescence intensity of reaction solution of carbonyl compound and BSA (Reference Example 1); set-up: species or system bovine; conditions: excitation 360 nm, fluorescence 430 nm
Experimental: AGEs were formed from proteins, BSA, using carbonyl compounds (3,4-DGE, MGO, GO, 3-DG, and Glu). First, BSA (manufactured by SIGMA; Trade Name: A-0281) was dissolved in PBS (pH 7.4) so as to have a concentration of 5 mg/ml (6.2 mM of basic amino acid residues). Thus a BSA solution was prepared. Then each carbonyl compound was added to the BSA solution so as to have a concentration of 25 mM (4-equivalent relative to the basic amino acid residues in the BSA). This was incubated at 37° C. for predetermined times (2, 4, 8, 24, 72, and 168 hours). […]
The reaction solutions incubated as described above were sampled and these reaction solutions thus sampled were applied to desalting columns (Trade Name: PD-10, manufactured by Amersham Pharmacia Biotech) to be desalted. With respect to the reaction solutions thus desalted, the BSA concentration was measured using BCA protein assay kit (manufactured by Pierce). […] Then the fluorescence intensity was measured at an excitation wavelength of 360 nm and a fluorescence wavelength of 430 nm (measuring apparatus: Trade Name SPECTRAFLUOR PLUS, manufactured by TECAN). […]

BSA [3] = biological target: T1, BSA; test: ELISA for known AGEs (pentosidine, CML, MRX) in reaction product; set-up: species or system bovine
Experimental: With respect to the above-mentioned sample solutions obtained using the carbonyl compounds (3,4-DGE, 3-DG, GO, and MGO), it was evaluated by ELISA whether pentosidine, carboxymethyllysine (CML), and Maillard reaction products (MRX: 8-hydroxy-5-methyldihydrothiazolo[3,2-alpha]) that were known AGEs had been produced or not. As a result, in the reaction solution obtained using GO, production of CML of 3.025 molecules per BSA molecule was found already after 24 hours incubation and production of CML of 3.7 molecules per BSA molecule was found after 168 hours incubation. In the reaction solution obtained using MGO, pentosidine of 0.0028 molecule per BSA molecule was found after 168 hours incubation. […] Accordingly, it can be said that the AGEs formed with 3,4-DGE are clearly different from conventionally known AGEs.

BSA [4] = biological target: T1, BSA; test: amino acid analysis of Arg and Lys residues in reaction product; set-up: species or system bovine; conditions: residual ratio vs untreated native BSA
Experimental: The aforementioned sample solutions were freeze-dried and then were acid-hydrolyzed in 6N hydrochloric acid (120° C., 24 hours). According to a conventionally known method, these were derivatized with dansyl chloride and were isolated with HPLC. Then the amounts of arginine (Arg) and lysine (Lys) residues in the samples were determined (n=3). FIG. 11(A) is a graph showing the residual ratios of the Arg residues, while FIG. 11(B) is a graph showing the residual ratios of the Lys residues. The residual ratio indicates a percentage that is obtained with the amount of residues in untreated native BSA being taken as 100%.

BSA [5] = biological target: T1, BSA; test: isoelectric focusing of reaction product; set-up: species or system bovine; conditions: reaction product with BSA
Experimental: A pI marker was electrophoresed beforehand and then a calibration curve between pI and mobility was created. Then the aforementioned sample solutions also were electrophoresed. With a region stained deepest in each sample being taken as the center of the band, the isoelectric point was calculated using the calibration curve.

BSA [6] = biological target: T1, BSA; test: SDS-PAGE of reaction product; set-up: species or system bovine; conditions: samples of 2 to 168 hours reaction
Experimental: The samples obtained using 3,4-DGE and MGO each were subjected to SDS-PAGE. The results are shown in the electrophoretograms in FIG. 13. […] The lanes show the results with respect to the molecular-weight marker, native BSA, and samples (2, 4, 8, 24, 72, and 168 hours) sequentially from the left.

BSA [7] = biological target: T1, BSA; test: reactivity with protein by fluorescence intensity (Reference Example 2); set-up: species or system bovine; conditions: 30 mmol/L carbonyl compound, BSA 10 mg/ml, 37° C., 24 hours
Experimental: BSA was dissolved in PBS (pH 7.4) so as to be 10 mg/ml. Various carbonyl compounds each were added thereto in such a manner as to have a concentration of 30 mmol/L. Then they were allowed to react at 37° C. for 24 hours. After the reaction, denaturation (AGE formation) of the BSA was evaluated according to the fluorescence intensity (at an excitation wavelength of 360 nm and a fluorescence wavelength of 430 nm) of the reaction solutions.

[8] = tested on: Human peritoneal mesothelial cells (HPMCs); test: cytotoxic test of AGE-proteins (WST-1); type: cell-based; conditions: 1 mg/mL AGE-protein, four days
Experimental: In order to examine the biological activities of AGE-proteins derived from various carbonyl compounds, a cytotoxic test was carried out. The AGE-proteins used herein were 3,4-DGE-BSA, MGO-BSA, GO-BSA, and AA-BSA that had been prepared in the same manner as in Example 3.
Human peritoneal mesothelial cells (HPMCs) that had been suspended in FBS-M199 medium were seeded into a 96-well plate (manufactured by Iwaki) in an amount of 3400 cells/well and then were cultured overnight. Adherent cells in each well were exposed to M199 medium (0.1 ml/well) containing 8.4% FBS in which AGE-proteins had been dissolved in such a manner as to be 1 mg/mL, and were cultured for four days. After completion of the exposure, the medium was removed. Thereafter, the adherent cells were cultured in M199 medium containing a 10% chromogenic substrate (Trade Name: WST-1; manufactured by TAKARA BIO, INC.). Then the absorbance at a wavelength of 450 nm was measured 40 minutes later and thereby the viable cell count was determined. The result is shown in the graph in FIG. 15. In FIG. 15, “DGE-BSA” denotes “3,4-DGE-BSA”.

T1 sequence (P02769 25-607): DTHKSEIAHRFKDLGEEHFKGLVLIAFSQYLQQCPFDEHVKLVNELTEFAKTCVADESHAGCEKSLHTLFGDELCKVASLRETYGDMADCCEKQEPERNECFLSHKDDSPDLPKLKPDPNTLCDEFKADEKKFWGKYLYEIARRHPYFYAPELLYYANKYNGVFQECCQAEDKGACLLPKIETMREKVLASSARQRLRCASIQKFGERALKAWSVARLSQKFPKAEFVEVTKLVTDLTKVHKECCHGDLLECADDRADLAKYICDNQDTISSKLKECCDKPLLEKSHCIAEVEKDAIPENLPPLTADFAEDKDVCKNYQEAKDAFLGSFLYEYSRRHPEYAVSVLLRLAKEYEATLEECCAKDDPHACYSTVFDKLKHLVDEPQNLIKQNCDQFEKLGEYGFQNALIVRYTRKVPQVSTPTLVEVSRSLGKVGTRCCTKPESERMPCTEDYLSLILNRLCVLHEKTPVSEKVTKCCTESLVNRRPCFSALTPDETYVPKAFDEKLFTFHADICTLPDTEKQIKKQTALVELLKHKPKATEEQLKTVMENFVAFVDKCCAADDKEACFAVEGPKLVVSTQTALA

O=CC(=O)C=CC(O)CO (stereo not shown) [3,4-DGE, 3,4-dideoxyglucosone-3-ene]
time until reaction solution was colored (BSA [1]): approximately two
browning of reaction solution (BSA [1]): deep brown
reaction time at which fluorescence nearly achieved equilibrium (BSA [2]): ~24 h
fluorescence intensity (BSA [2]; compared to other carbonyl compounds): very high fluorescence intensity
production of CML, pentosidine, MRX (BSA [3]; ELISA of reaction solution): production of neither CML, pentosidine, or MRX was found
free Arg and Lys residues in reaction product (BSA [4]): reduced
change in isoelectric point (BSA [5]): shift toward the acidic side after 24 hours reaction
change in SDS-PAGE band (BSA [6]): disturbance in the band is observed after 2 to 4 hours reaction
fluorescence of BSA solution (AGE formation) (BSA [7]): very strong fluorescence

3,4-DGE-BSA: AGE-protein formed from bovine serum albumin with 3,4-DGE
activity of the cells (viable cell count) [8]: approximately 25%

O=CC(=O)C[C@H](O)[C@H](O)CO [Example 3-DG, 3-deoxyglucosone]
browning of reaction solution (BSA [1]): observed

CC(=O)C=O [MGO, methylglyoxal]
browning of reaction solution (BSA [1]): observed
pentosidine (BSA [3]; after 168 hours incubation): 0.0028 molecule per BSA molecule

O=CC=O [GO, glyoxal]
browning of reaction solution (BSA [1]): observed
production of CML (BSA [3]; after 24 hours incubation): 3.025 molecules per BSA molecule
production of CML (BSA [3]; after 168 hours incubation): 3.7 molecules per BSA molecule
